Reference: the NIST ThermoML archive (doi:10.1016/j.fluid.2018.04.012)

Assay: xn = mol fraction of the nth substance listed
Settings: Liquid, Vibrating tube method

CC(C)OC(C)C [diisopropyl ether] + CC(C)O
mass density [kg/m3]
Settings	x2 = 0.1503	x2 = 0.2979	x2 = 0.4228	x2 = 0.5	x2 = 0.6737	x2 = 0.8483
333.15 K, 130000 kPa	–	–	–	807.2	815.2	824.7
333.15 K, 140000 kPa	799.3	804.1	808.6	811.9	819.7	829.1
353.19 K, 1000 kPa	665.8	673.2	680.7	685.4	698.3	713.7
353.19 K, 5000 kPa	673.7	680.7	687.7	692.4	704.7	719.5
353.19 K, 10000 kPa	682.3	689.1	695.5	700.2	711.9	726.1
353.19 K, 15000 kPa	690	696.5	702.7	707.2	718.5	732.2
353.19 K, 20000 kPa	696.9	703.2	709.2	713.6	724.5	737.7
353.19 K, 25000 kPa	703.3	709.3	715.3	719.5	730.1	742.9
353.19 K, 30000 kPa	709.2	715.1	720.9	725	735.3	747.8
353.19 K, 35000 kPa	714.7	720.5	726.2	730.1	740.2	752.4
353.19 K, 40000 kPa	719.8	725.4	731.2	734.9	744.8	756.7
353.19 K, 45000 kPa	724.6	730.2	735.9	739.5	749.2	760.8
353.19 K, 50000 kPa	729.4	734.8	740.3	743.9	753.5	764.9
353.19 K, 55000 kPa	733.7	739	744.5	748	757.3	768.6
353.19 K, 60000 kPa	737.8	743.1	748.6	752	761.1	772.2
353.19 K, 65000 kPa	741.9	747.1	752.5	755.8	764.9	775.8
353.19 K, 70000 kPa	745.7	750.9	756.2	759.5	768.4	779.2
353.19 K, 80000 kPa	752.9	758	763.2	766.3	775	785.5
353.19 K, 90000 kPa	759.7	764.7	769.7	772.8	781.4	791.6
353.19 K, 100000 kPa	766	770.8	775.8	778.9	787.2	797.2
353.19 K, 110000 kPa	772	776.8	781.5	784.7	792.9	802.7
353.19 K, 120000 kPa	777.6	782.3	786.9	790.1	798.1	807.7
353.19 K, 130000 kPa	782.9	787.6	792.1	795.2	803.1	812.6
353.19 K, 140000 kPa	788.1	792.7	797	800.2	808	817.4
373.24 K, 1000 kPa	641	648.3	655.6	660.4	673.6	689.6
373.24 K, 5000 kPa	650.7	657.5	664.2	669	681.4	696.7
373.24 K, 10000 kPa	661	667.6	673.7	678.3	690.1	704.5
373.24 K, 15000 kPa	670	676.2	682.1	686.6	697.9	711.6
373.24 K, 20000 kPa	678.1	684.1	689.7	694	704.8	718
373.24 K, 25000 kPa	685.3	691.1	696.6	700.8	711.2	724
373.24 K, 30000 kPa	692	697.6	703	707	717.1	729.5
373.24 K, 35000 kPa	698.1	703.6	708.9	712.8	722.6	734.7
373.24 K, 40000 kPa	703.9	709.2	714.5	718.1	727.8	739.6
373.24 K, 45000 kPa	709.2	714.5	719.6	723.3	732.7	744.3
373.24 K, 50000 kPa	714.2	719.3	724.5	728	737.2	748.6
373.24 K, 55000 kPa	719.1	724.1	729.2	732.6	741.7	752.7
373.24 K, 60000 kPa	723.5	728.5	733.6	736.9	745.8	756.7
373.24 K, 65000 kPa	727.8	732.8	737.8	741.1	749.8	760.5
373.24 K, 70000 kPa	732	736.8	741.8	745	753.6	764.2
373.24 K, 80000 kPa	739.7	744.5	749.3	752.6	760.9	771.2
373.24 K, 90000 kPa	747	751.7	756.3	759.4	767.7	777.7
373.24 K, 100000 kPa	753.7	758.3	762.8	765.9	774	783.8
373.24 K, 110000 kPa	760	764.5	768.9	772	779.9	789.5
373.24 K, 120000 kPa	765.9	770.4	774.7	777.8	785.5	795
373.24 K, 130000 kPa	771.6	776	780.2	783.3	790.9	800.2
373.24 K, 140000 kPa	776.9	781.3	785.3	788.5	796	805.1
393.28 K, 1000 kPa	614.1	620.6	627.9	632.9	645.9	662.5
393.28 K, 5000 kPa	626.4	632.4	638.9	643.7	655.9	671.3
393.28 K, 10000 kPa	639	644.7	650.5	655.2	666.5	680.9
393.28 K, 15000 kPa	649.7	655.1	660.6	665.1	675.7	689.4
393.28 K, 20000 kPa	658.9	664.1	669.5	673.7	683.9	696.9
393.28 K, 25000 kPa	667.1	672.2	677.4	681.4	691.2	703.8
393.28 K, 30000 kPa	674.7	679.5	684.6	688.5	698	710.1
393.28 K, 35000 kPa	681.5	686.3	691.3	695.1	704.2	716
393.28 K, 40000 kPa	687.8	692.5	697.4	701	710.1	721.5
393.28 K, 45000 kPa	693.6	698.2	703.2	706.6	715.4	726.6
393.28 K, 50000 kPa	699.1	703.7	708.6	711.8	720.5	731.5
393.28 K, 55000 kPa	704.5	708.9	713.6	716.9	725.4	736.2
393.28 K, 60000 kPa	709.2	713.7	718.4	721.6	729.9	740.5
393.28 K, 65000 kPa	713.9	718.3	723	726	734.3	744.7
393.28 K, 70000 kPa	718.4	722.8	727.3	730.4	738.5	748.8
393.28 K, 80000 kPa	726.7	731	735.5	738.5	746.4	756.3
393.28 K, 90000 kPa	734.4	738.6	742.9	746.1	753.7	763.4
393.28 K, 100000 kPa	741.5	745.6	749.9	752.9	760.4	769.9
393.28 K, 110000 kPa	748.3	752.4	756.4	759.5	766.8	776.1
393.28 K, 120000 kPa	754.5	758.5	762.5	765.5	772.8	781.8
393.28 K, 130000 kPa	760.4	764.4	768.3	771.3	778.4	787.4
393.28 K, 140000 kPa	766.1	770	773.8	776.8	783.9	792.7
